“Also recorded” adds a separate entry of the source. Where only a bound is given, the exact number is not on record here.

For orientation: EC50 means the concentration needed to bring the measured effect to its halfway point. Higher therefore signals a need for much substance.

In data set [1] the target is T1, F508del-CFTR (Homo sapiens, UniProt P13569, DEL508-508). Description: Ussing chamber assay, chloride transport in F508del/F508del-HBE cells. Format: cell-based. The arrangement: CF-HBE cells were isolated from patients homozygous for F508del (F508del/F508del-HBE); endogenous in cells; host or cells: primary F508del/F508del-HBE cells from bronchial tissue of CF patients. The method, then: Ussing chamber experiments were performed on polarized airway epithelial cells expressing F508del to further characterize the F508del modulators identified in the optical assay above. Non-CF and CF airway epithelia were isolated from bronchial tissue, cultured using methods well known in the art, and plated onto Costar® Snapwell™ filters that were precoated with NIH3T3-conditioned media. After four days the apical media was removed and the cells were grown at an air liquid interface for >14 days prior to use. […] CF-HBE cells were isolated from patients homozygous for F508del (F508del/F508del-HBE) or heterozygous for F508del and a mutation associated with minimal CF transmembrane conductance regulator (CFTR) function (MF) that is not expected to respond to Compound II, Compound III, Compound III-d, and the combination of Compound II and III, or Compound II and III-d (F508del/MF-HBE).
T1 sequence (P13569 with tags, fused parts or gaps DEL508-508): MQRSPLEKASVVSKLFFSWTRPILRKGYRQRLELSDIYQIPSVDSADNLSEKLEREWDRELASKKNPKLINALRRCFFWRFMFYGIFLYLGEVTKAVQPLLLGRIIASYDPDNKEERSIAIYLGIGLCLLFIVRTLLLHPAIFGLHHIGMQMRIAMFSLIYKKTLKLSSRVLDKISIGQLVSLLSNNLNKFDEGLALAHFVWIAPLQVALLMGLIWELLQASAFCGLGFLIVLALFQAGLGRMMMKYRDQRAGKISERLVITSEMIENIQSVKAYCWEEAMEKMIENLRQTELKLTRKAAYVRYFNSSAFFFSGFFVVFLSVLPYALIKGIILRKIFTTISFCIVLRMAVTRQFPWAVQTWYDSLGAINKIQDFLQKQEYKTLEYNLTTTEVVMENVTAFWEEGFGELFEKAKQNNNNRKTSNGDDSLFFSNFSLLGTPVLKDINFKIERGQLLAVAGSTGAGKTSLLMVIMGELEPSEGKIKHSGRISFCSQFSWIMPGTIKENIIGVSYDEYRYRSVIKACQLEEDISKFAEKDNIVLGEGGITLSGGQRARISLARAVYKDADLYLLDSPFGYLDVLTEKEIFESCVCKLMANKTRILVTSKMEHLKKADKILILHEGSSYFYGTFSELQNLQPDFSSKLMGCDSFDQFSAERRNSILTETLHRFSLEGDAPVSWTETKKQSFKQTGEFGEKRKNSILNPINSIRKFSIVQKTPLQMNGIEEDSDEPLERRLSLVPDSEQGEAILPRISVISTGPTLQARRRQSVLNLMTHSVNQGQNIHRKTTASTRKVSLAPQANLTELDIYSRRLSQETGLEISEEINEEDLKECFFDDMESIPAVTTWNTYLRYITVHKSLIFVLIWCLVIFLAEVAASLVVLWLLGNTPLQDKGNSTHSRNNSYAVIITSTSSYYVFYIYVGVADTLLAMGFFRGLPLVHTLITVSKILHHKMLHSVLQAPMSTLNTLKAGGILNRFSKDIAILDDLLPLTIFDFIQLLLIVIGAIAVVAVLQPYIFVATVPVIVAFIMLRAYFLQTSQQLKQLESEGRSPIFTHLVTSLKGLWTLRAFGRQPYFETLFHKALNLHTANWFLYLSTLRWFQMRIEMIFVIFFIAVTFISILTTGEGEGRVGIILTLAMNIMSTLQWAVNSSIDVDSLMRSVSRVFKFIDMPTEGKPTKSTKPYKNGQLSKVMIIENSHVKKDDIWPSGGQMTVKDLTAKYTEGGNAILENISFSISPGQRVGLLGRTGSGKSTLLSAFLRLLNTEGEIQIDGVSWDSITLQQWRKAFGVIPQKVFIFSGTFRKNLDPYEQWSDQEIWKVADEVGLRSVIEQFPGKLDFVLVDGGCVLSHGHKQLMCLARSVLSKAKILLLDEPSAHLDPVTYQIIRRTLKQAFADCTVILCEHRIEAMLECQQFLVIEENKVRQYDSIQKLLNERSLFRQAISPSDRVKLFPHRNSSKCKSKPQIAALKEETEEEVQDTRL
HBE cells grown on Costar® Snapwell™ cell culture inserts were mounted in an Ussing chamber (Physiologic Instruments, Inc., San Diego, Calif.), and the transepithelial resistance and short-circuit current in the presence of a basolateral to apical Cl^− gradient (ISC) were measured using a voltage-clamp system (Department of Bioengineering, University of Iowa, Iowa). Briefly, HBE cells were examined under voltage-clamp recording conditions (Vhold=0 mV) at 37° C. The basolateral solution contained (in mM) 145 NaCl, 0.83 K2HPO4, 3.3 KH2PO4, 1.2 MgCl2, 1.2 CaCl2, 10 Glucose, 10 HEPES (pH adjusted to 7.35 with NaOH) and the apical solution contained (in mM) 145 NaGluconate, 1.2 MgCl2, 1.2 CaCl2, 10 glucose, 10 HEPES (pH adjusted to 7.35 with NaOH).
Ussing Chamber Assay Procedure
A basolateral to apical membrane Cl^− concentration gradient was set up as follows. Normal Ringer's solution was used on the basolateral membrane, whereas apical NaCl was replaced by equimolar sodium gluconate (titrated to pH 7.4 with NaOH) to give a large Cl^− concentration gradient across the epithelium. […] Chloride current was measured to assess the increase in functional CFTR in the cell membrane. […]

Data set [2] addresses T2, CFTR (Homo sapiens, UniProt P13569, DEL508-508).
T2 construct: In human bronchial epithelial (HBE) cells studied in vitro; endogenous in cells; host or cells: human bronchial epithelial (HBE) cells
Description: CFTR chloride transport in human bronchial epithelial (HBE) cells in vitro (Example 7). The class given is cell-based.

Data set [3] deals with T1, F508del-CFTR. Briefly: F508del-CFTR processing and trafficking (170 to 180 kDa band) in F508del/F508del-HBE cells. The class given is cell-based. The arrangement: CF-HBE cells were isolated from patients homozygous for F508del (F508del/F508del-HBE); endogenous in cells; host or cells: primary F508del/F508del-HBE cells from bronchial tissue of CF patients. An excerpt:
The CFTR protein delivered to the cell surface by Compound I alone or in combination with Compound II (Compound I/Compound II) was potentiated by Compound III.

Data set [4] in a line: Preclinical reproductive toxicology studies. Format: in vivo.
Data set [5] is described as follows: Compound I monotherapy safety in healthy subjects. Format: in vivo, human. The following applies: multiple doses up to 400 mg qd for 10 days.
The target of data set [6] is T1, F508del-CFTR. Description: Membrane potential optical assay (F508del-CFTR correction). The following applies: NIH3T3 mouse fibroblasts stably expressing F508del, 18-24 hours. The arrangement: expressed in transfected cells. The class given is cell-based. An excerpt:
Membrane Potential Optical Methods for Assaying Properties of F508del-CFTR Modulators
An optical assay was employed to measure changes in membrane potential to determine the CFTR modulator properties of compounds. The assay utilized fluorescent voltage sensing dyes to measure changes in membrane potential using a fluorescent plate reader (e.g., FLIPR III, Molecular Devices, Inc.) as a readout for increase in functional F508del in NIH 3T3 cells. The driving force for the response was the creation of a chloride ion gradient in conjunction with channel activation and concurrent with compound treatment by a single liquid addition step after the cells had previously been loaded with a voltage sensing dye.
NIH3T3 mouse fibroblasts stably expressing F508del were used for optical measurements of membrane potential. The cells were maintained at 37° C. in 5% CO2 and 90% humidity in Dulbecco's modified Eagle's medium supplemented with 2 mM glutamine, 10% fetal bovine serum, 1×NEAA, β-ME, 1× pen/strep, and 25 mM HEPES in 175 cm^2 culture flasks. […] The cells were then activated and treated with Compound I. After 18-24 hours, fluorescence from the voltage sensing dye in the cells was measured to assess changes in the membrane potential as a read out for increase in functional F508del CFTR in the NIH3T3 cells.

T2 sequence (P13569 with tags, fused parts or gaps DEL508-508): as above

On to `CC(C)(C)c1cc(C(C)(C)C)c(NC(=O)c2c[nH]c3ccccc3c2=O)cc1O` [Compound III, N-(5-hydroxy-2,4-di-tert-butyl-phenyl)-4-oxo-1H-quinoline-3-carboxamide, reference compound], for which the “potentiation of F508del-CFTR delivered to the cell surface by Compound I alone or with Compound II” value in data set [1] was “potentiated”. Besides, the “potentiation of CFTR protein delivered to the cell surface by Compound I alone or with Compound II” value in data set [2] is on record as “potentiated”.
Consider `C[C@@H]1CN(c2nc(-n3ccc(OCCC4(C(F)(F)F)CC4)n3)ccc2C(=O)NS(=O)(=O)c2ccccc2)C(C)(C)C1` [Compound I, N-(benzenesulfonyl)-6-[3-[2-[1-(trifluoromethyl)cyclopropyl]ethoxy]pyrazol-1-yl]-2-[(4(S))-2,2,4-trimethylpyrrolidin-1-yl]pyridine-3-carboxamide], for which the “steady-state levels, fold of untreated levels” value in data set [3] (F508del/F508del-HBE cells, 16 to 24 hours, 1 μM Compound I alone) was 6.5 fold. Besides, the “processing and trafficking of F508del-CFTR” value in data set [3] (in vitro) is “improved the processing and trafficking of F508del-CFTR; also recorded: facilitates the processing and trafficking of F508del-CFTR”. In addition, in data set [1], the chloride transport entry was “enhanced chloride transport” and the “effect on chloride transport in relation to the effect of Compound II” value is “additive to the effect of Compound II”. The reproductive toxicology findings entry in data set [4] was “no adverse findings of note”. The safety and tolerability result in data set [5] was “safe and well tolerated”. Also, in data set [6], the EC50 is below 3 µM. Also, the Emax in data set [6] (read-out: % Efficacy relative to Compound II) was at least 100%.

Values taken from patent publication US11253509B2, “Methods of treatment for cystic fibrosis” (Vertex Pharmaceuticals Incorporated, priority 2017, dated 2022).
